Source: patent publication US20240408047A1, “HYPOXIA INDUCIBLE FACTOR-2(ALPHA) INHIBITORS FOR THE TREATMENT OF BLADDER CANCER” (NIKANG THERAPEUTICS, INC., priority 2021, published 2024)

How the values were obtained:
RT112 xenograft model = test: Anti-tumor effect in mouse bladder cancer xenograft model RT112; assay type: in vivo, Balb/c Nude mouse; settings: 20 mg/kg bid, 17-30 days
Description: (§1) Compound 1 was formulated with 0.5% methylcellulose. 4˜10×10^6 tumor cells in PBS and Corning® Matrigel (11 in volume) were inoculated subcutaneously at right flank for each Balb/c Nude mouse at 6-7 weeks of age for tumor development. Once tumors were 100-200 mm^3 in size, the tumor bearing mice were randomly grouped into 2 groups (n=8) and treatment started with vehicle bid and Compound 1 at 20 mg/kg bid, respectively, for 17-30 days. Tumor sizes were measured twice weekly in two dimensions using a caliper and the volumes were expressed in mm^3 using the formula V=0.5×a×b^2 where a and b were the long and short diameters of the tumor, respectively.

RT4 xenograft model = test: Anti-tumor effect in mouse bladder cancer xenograft model RT4; assay type: in vivo, Balb/c Nude mouse
Description: as §1

T24 xenograft model = test: Anti-tumor effect in mouse bladder cancer xenograft model T24; assay type: in vivo, Balb/c Nude mouse; settings: 20 mg/kg bid, 17-30 days
Description: as §1

T24 cells = test: Hypoxia-induced mRNA upregulation of VEGFA and GLUT1 in T24 cells (quantitative PCR); assay type: cell-based; settings: 72 h, hypoxic (1% O2), Compound 1 at 1.0 μM
Description: T24 cells were treated with DMSO or 1.0 μM of Compound 1; control siRNA or siRNA specific for HIF-1α, HIF-2α, for 72 h under normoxic (20% O2) or hypoxic (1% O2) conditions. Total RNA was extracted using RNeasy mini kit (Qiagen, Catalog #74104) and QIAshredder (Qiagen, Catalog #79654). Then RNA was reverse-transcribed into cDNA using Applied Biosystems™ High-Capacity cDNA Reverse Transcription Kit (Applied Biosystems™ cat #4368814). The cDNA was used as templates to examine the mRNA expression of VEGFA and GLUT1 by quantitative polymerase chain reaction (PCR) assays (PowerUp SYBR Green Master Mix by Applied Biosystems™, cat #A25742), with GAPDH serving as control for normalization.

nectin-4 = settings: patients who progressed following treatment with chemotherapy and immunotherapy; cited from earlier work

Molecule | anti-tumor effect in RT112 xenograft model (RT112 xenograft model) | anti-tumor effect in RT4 xenograft model (RT4 xenograft model; 20 mg/kg bid, 17-30 days) | TGI (RT4 xenograft model; RT4 model, 20 mg/kg of Compound 1) [%] | anti-tumor effect in T24 xenograft model (T24 xenograft model) | GLUT1 mRNA level induced by hypoxia (T24 cells) | VEGFA mRNA level induced by hypoxia (T24 cells) | objective response rate (nectin-4) [%]
N#Cc1cc(F)cc(Oc2ccc3c4c2[C@@H](F)C[C@]4(O)C(F)(F)C3(F)F)c1 [Compound 1, 3-fluoro-5-(((1S,2aR)-1,3,3,4,4-pentafluoro-2a-hydroxy-2,2a,3,4-tetrahydro-1H-cyclopenta[cd]inden-7-yl)oxy)benzonitrile] | marginal anti-tumor effect | significant tumor growth inhibition | 44 | complete tumor regression | significantly suppressed | significantly suppressed | 
Enfortumab vedotin |  |  |  |  |  |  | 44
